Laboratory results reported in PubChem BioAssay AID2060892 (Molecular Pharmacology Branch, DTP, NCI, 2025).

System: HOP-62 complex spheroids with HUVEC/MSC, viability
Test: Anticancer human tumor HOP-62 cell line growth inhibition [RAS];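 further: spheroids exposed to agents for seven days before readout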;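 on viability, T/C: 100% = DMSO vehicle control viability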
Settings: for viability, T/C: stronger effect = lower value
Method in brief: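 Agents were tested in combination matrices in half-log decrements from a top concentration at or near clinical Cmax (10 microM if undetermined). Targets were multi-cell spheroids of tumour lines plus HUVEC and MSC stromal cells.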

[1] = curve of first compound, second compound 0.00316 µM
[2] = curve of first compound, second compound 0.01 µM
[3] = curve of first compound, second compound 0.0316 µM
[4] = curve of first compound, second compound 0.1 µM
[5] = curve of first compound, second compound 0.316 µM
[6] = curve of first compound, second compound 1 µM
[7] = second compound 0.00316 µM, first compound 0.0316 µM
[8] = second compound 0.00316 µM, first compound 0.1 µM
[9] = second compound 0.00316 µM, first compound 0.316 µM
[10] = second compound 0.00316 µM, first compound 1 µM
[11] = second compound 0.00316 µM, first compound 3.16 µM
[12] = second compound 0.00316 µM, first compound 10 µM
[13] = second compound 0.01 µM, first compound 0.0316 µM
[14] = second compound 0.01 µM, first compound 0.1 µM
[15] = second compound 0.01 µM, first compound 0.316 µM
[16] = second compound 0.01 µM, first compound 1 µM
[17] = second compound 0.01 µM, first compound 3.16 µM
[18] = second compound 0.01 µM, first compound 10 µM
[19] = second compound 0.0316 µM, first compound 0.0316 µM
[20] = second compound 0.0316 µM, first compound 0.1 µM
[21] = second compound 0.0316 µM, first compound 0.316 µM
[22] = second compound 0.0316 µM, first compound 1 µM
[23] = second compound 0.0316 µM, first compound 3.16 µM
[24] = second compound 0.0316 µM, first compound 10 µM
[25] = second compound 0.1 µM, first compound 0.0316 µM
[26] = second compound 0.1 µM, first compound 0.1 µM
[27] = second compound 0.1 µM, first compound 0.316 µM
[28] = second compound 0.1 µM, first compound 1 µM
[29] = second compound 0.1 µM, first compound 3.16 µM
[30] = second compound 0.1 µM, first compound 10 µM
[31] = second compound 0.316 µM, first compound 0.0316 µM
[32] = second compound 0.316 µM, first compound 0.1 µM
[33] = second compound 0.316 µM, first compound 0.316 µM
[34] = second compound 0.316 µM, first compound 1 µM
[35] = second compound 0.316 µM, first compound 3.16 µM
[36] = second compound 0.316 µM, first compound 10 µM
[37] = second compound 1 µM, first compound 0.0316 µM
[38] = second compound 1 µM, first compound 0.1 µM
[39] = second compound 1 µM, first compound 0.316 µM
[40] = second compound 1 µM, first compound 1 µM
[41] = second compound 1 µM, first compound 3.16 µM
[42] = second compound 1 µM, first compound 10 µM
[43] = curve of first compound, second compound 3.16 µM
[44] = curve of first compound, second compound 10 µM
[45] = second compound 3.16 µM, first compound 0.0316 µM
[46] = second compound 3.16 µM, first compound 0.1 µM
[47] = second compound 3.16 µM, first compound 0.316 µM
[48] = second compound 3.16 µM, first compound 1 µM
[49] = second compound 10 µM, first compound 0.0316 µM
[50] = second compound 10 µM, first compound 0.1 µM
[51] = second compound 10 µM, first compound 0.316 µM
[52] = second compound 10 µM, first compound 1 µM

CCC(CC)c1cc(NC2CCC(N)C2)n2nccc2n1 (centres undefined) + C=CC(=O)N1CCN(c2nc(OCC3CCCN3C)nc3c(F)c(-c4nc(N)cc(C)c4C(F)(F)F)c(Cl)cc23)C(C)C1
IC50 [1]: 1430 nM
IC50 [2]: 1320 nM
IC50 [3]: 1450 nM
IC50 [4]: 1430 nM
IC50 [5]: 1360 nM
IC50 [6]: 1380 nM
viability, T/C [7]: 82.5%
viability, T/C [8]: 79.4%
viability, T/C [9]: 88.6%
viability, T/C [10]: 71.8%
viability, T/C [11]: 2.08%
viability, T/C [12]: 1.07%
viability, T/C [13]: 77.7%
viability, T/C [14]: 69.6%
viability, T/C [15]: 70.3%
viability, T/C [16]: 65.5%
viability, T/C [17]: 1.41%
viability, T/C [18]: 0.46%
viability, T/C [19]: 75.2%
viability, T/C [20]: 68.4%
viability, T/C [21]: 76.5%
viability, T/C [22]: 73.2%
viability, T/C [23]: 0.98%
viability, T/C [24]: 0.34%
viability, T/C [25]: 66.2%
viability, T/C [26]: 70.5%
viability, T/C [27]: 74.6%
viability, T/C [28]: 73.5%
viability, T/C [29]: 2.62%
viability, T/C [30]: 0.16%
viability, T/C [31]: 70.7%
viability, T/C [32]: 68.9%
viability, T/C [33]: 71.4%
viability, T/C [34]: 68.2%
viability, T/C [35]: 0.89%
viability, T/C [36]: 0.5%
viability, T/C [37]: 62.5%
viability, T/C [38]: 69.9%
viability, T/C [39]: 70.9%
viability, T/C [40]: 73.4%
viability, T/C [41]: 1.28%
viability, T/C [42]: 0.62%

CCN1CCN(Cc2ccc(Nc3ncc(F)c(-c4cc(F)c5nc(C)n(C(C)C)c5c4)n3)nc2)CC1
viability, T/C (compound 0.00316 µM): 103% [middle of 4 runs]
viability, T/C (compound 0.01 µM): 104% [middle of 4 runs]
viability, T/C (compound 0.0316 µM): 103% [middle of 4 runs]
IC50 (curve of compound): > 1000 nM

CCn1c(-c2cc(N3CCN(C)CC3)cnc2C(C)OC)c2c3cc(ccc31)-c1csc(n1)CC(NC(=O)C1CC1C)C(=O)N1CCCC(N1)C(=O)OCC(C)(C)C2 (centres undefined)
viability, T/C (compound 0.000949 µM): 117% [middle of 8 runs]
viability, T/C (compound 0.003 µM): 99.9% [middle of 7 runs]
viability, T/C (compound 0.00949 µM): 73.3% [middle of 8 runs]
viability, T/C (compound 0.03 µM): 52.7% [middle of 8 runs]
viability, T/C (compound 0.0949 µM): 39.1% [middle of 8 runs]
viability, T/C (compound 0.3 µM): 39.4% [middle of 8 runs]
IC50 (compound alone, run of 07/09/2024): 35.9 nM [middle of 8 runs]

CC1(O)CCCC1n1c(=O)c(C(F)F)cc2cnc(NC3CCN(S(C)(=O)=O)CC3)nc21 (centres undefined) + C=CC(=O)N1CCN(c2nc(OCC3CCCN3C)nc3c(F)c(-c4nc(N)cc(C)c4C(F)(F)F)c(Cl)cc23)C(C)C1
IC50 [1]: 140 nM
IC50 [2]: 94.8 nM
IC50 [3]: 40.3 nM
IC50 [4]: 81.2 nM
IC50 [5]: < 31.6 nM
IC50 [6]: 55.7 nM
viability, T/C [7]: 64%
viability, T/C [8]: 47.8%
viability, T/C [9]: 38.4%
viability, T/C [10]: 35.6%
viability, T/C [11]: 32.3%
viability, T/C [12]: 1.76%
viability, T/C [13]: 66.3%
viability, T/C [14]: 43.9%
viability, T/C [15]: 28.7%
viability, T/C [16]: 34%
viability, T/C [17]: 27.7%
viability, T/C [18]: 0.91%
viability, T/C [19]: 55.5%
viability, T/C [20]: 39.8%
viability, T/C [21]: 29.9%
viability, T/C [22]: 28.3%
viability, T/C [23]: 22.9%
viability, T/C [24]: 0.75%
viability, T/C [25]: 66.5%
viability, T/C [26]: 40%
viability, T/C [27]: 30.1%
viability, T/C [28]: 30%
viability, T/C [29]: 29.5%
viability, T/C [30]: 0.8%
viability, T/C [31]: 53.6%
viability, T/C [32]: 37.6%
viability, T/C [33]: 30.6%
viability, T/C [34]: 32.6%
viability, T/C [35]: 21.9%
viability, T/C [36]: 0.96%
viability, T/C [37]: 59.4%
viability, T/C [38]: 39.4%
viability, T/C [39]: 29.9%
viability, T/C [40]: 27.2%
viability, T/C [41]: 25.7%
viability, T/C [42]: 1.08%

C[C@@H](NC(=O)c1ncnc(N)c1Cl)c1ncc(C(=O)Nc2cc(C(F)(F)F)c(Cl)cn2)s1 + C#Cc1c(F)ccc2cc(O)cc(-c3ncc4c(N5CC6CCC(C5)N6)nc(OCC56CCCN5CC(F)C6)nc4c3F)c12
IC50 [3]: > 10000 nM
IC50 [4]: > 10000 nM
IC50 [5]: > 10000 nM
IC50 [6]: > 10000 nM
IC50 [43]: > 10000 nM
IC50 [44]: 457 nM
viability, T/C [19]: 109%
viability, T/C [20]: 105%
viability, T/C [21]: 101%
viability, T/C [22]: 102%
viability, T/C [23]: 92.6%
viability, T/C [24]: 78.6%
viability, T/C [25]: 110%
viability, T/C [26]: 113%
viability, T/C [27]: 105%
viability, T/C [28]: 102%
viability, T/C [29]: 96.8%
viability, T/C [30]: 75.4%
viability, T/C [31]: 114%
viability, T/C [32]: 101%
viability, T/C [33]: 96.6%
viability, T/C [34]: 104%
viability, T/C [35]: 97.6%
viability, T/C [36]: 62.8%
viability, T/C [37]: 117%
viability, T/C [38]: 97.9%
viability, T/C [39]: 91.1%
viability, T/C [40]: 94.1%
viability, T/C [41]: 88.6%
viability, T/C [42]: 65.4%
viability, T/C [45]: 83.2%
viability, T/C [46]: 78.7%
viability, T/C [47]: 77.1%
viability, T/C [48]: 77.4%
viability, T/C (second compound 3.16 µM, first compound 3.16 µM): 73.4%
viability, T/C (second compound 3.16 µM, first compound 10 µM): 58.4%
viability, T/C [49]: 51.9%
viability, T/C [50]: 46.8%
viability, T/C [51]: 54.1%
viability, T/C [52]: 49.9%
viability, T/C (second compound 10 µM, first compound 3.16 µM): 43.4%
viability, T/C (second compound 10 µM, first compound 10 µM): 33.7%

Nc1ccn(C2OC(CO)C(O)C2(F)F)c(=O)n1 (centres undefined) + C#Cc1c(F)ccc2cc(O)cc(-c3ncc4c(N5CC6CCC(C5)N6)nc(OCC56CCCN5CC(F)C6)nc4c3F)c12
IC50 [3]: 6.38 nM
IC50 [4]: 5.77 nM
IC50 [5]: 5.94 nM
IC50 [6]: 5.32 nM
IC50 [43]: 4.58 nM
IC50 [44]: < 3.16 nM
viability, T/C (second compound 0.0316 µM, first compound 0.00316 µM): 107%
viability, T/C (second compound 0.0316 µM, first compound 0.01 µM): 13.4%
viability, T/C [19]: 5.94%
viability, T/C [20]: 5.61%
viability, T/C [21]: 4.99%
viability, T/C [22]: 6.52%
viability, T/C (second compound 0.1 µM, first compound 0.00316 µM): 92.4%
viability, T/C (second compound 0.1 µM, first compound 0.01 µM): 11.2%
viability, T/C [25]: 8.15%
viability, T/C [26]: 4.9%
viability, T/C [27]: 5.5%
viability, T/C [28]: 6.42%
viability, T/C (second compound 0.316 µM, first compound 0.00316 µM): 97.4%
viability, T/C (second compound 0.316 µM, first compound 0.01 µM): 10.9%
viability, T/C [31]: 4.88%
viability, T/C [32]: 4.68%
viability, T/C [33]: 4.42%
viability, T/C [34]: 4.04%
viability, T/C (second compound 1 µM, first compound 0.00316 µM): 83.7%
viability, T/C (second compound 1 µM, first compound 0.01 µM): 9.09%
viability, T/C [37]: 4.77%
viability, T/C [38]: 4.48%
viability, T/C [39]: 3.43%
viability, T/C [40]: 3.47%
viability, T/C (second compound 3.16 µM, first compound 0.00316 µM): 67.8%
viability, T/C (second compound 3.16 µM, first compound 0.01 µM): 12.5%
viability, T/C [45]: 5.06%
viability, T/C [46]: 4.31%
viability, T/C [47]: 5.01%
viability, T/C [48]: 4.23%
viability, T/C (second compound 10 µM, first compound 0.00316 µM): 39.5%
viability, T/C (second compound 10 µM, first compound 0.01 µM): 12.1%
viability, T/C [49]: 8.09%
viability, T/C [50]: 6.92%
viability, T/C [51]: 8.08%
viability, T/C [52]: 6.83%
